In assay [1] the target is T1, HpSK M10A (Helicobacter pylori, UniProt P56073, M10A).
T1 construct: His6 (own knowledge: pQE30 vector gives an N-terminal MRGS-His6 tag); made in house; host or cells: E. coli
In kind it is biochemical. To be noted: apparent value. As for the experimental part:
SK activity was determined by coupling the release of ADP from the SK-catalyzed reaction to the oxidation of NADH using pyruvate kinase (EC 2.7.1.40) and lactate dehydrogenase (EC 1.1.1.27) as coupling enzymes. […] All assays were conducted in a 96-well microplate and analyzed with a spectrophotometer (FLUOstar OPTIMA, BMG LABTECH). The relative activity of wild-type HpSK was set to 100%.

For assay [2], the target named is T2, wild-type HpSK (Helicobacter pylori shikimate kinase) (Helicobacter pylori, UniProt P56073).
T2 construct: His6 (own knowledge: the pQE30 vector gives an N-terminal MRGS-His6 tag); made in house; host or cells: E. coli (printed for the mutants; same procedures as for wild type)
T2 sequence (P56073 whole entry): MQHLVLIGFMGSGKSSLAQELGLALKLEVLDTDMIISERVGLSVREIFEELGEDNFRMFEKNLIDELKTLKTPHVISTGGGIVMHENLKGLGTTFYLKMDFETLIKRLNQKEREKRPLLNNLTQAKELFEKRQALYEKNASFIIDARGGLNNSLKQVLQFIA
The following applies: wild-type enzyme, cited from earlier work.

Assay [3] deals with T3, HpSK F48Y (Helicobacter pylori, UniProt P56073, F48Y).
T3 construct: His6 (own knowledge: pQE30 vector gives an N-terminal MRGS-His6 tag); made in house; host or cells: E. coli
T3 sequence (P56073 whole entry F48Y): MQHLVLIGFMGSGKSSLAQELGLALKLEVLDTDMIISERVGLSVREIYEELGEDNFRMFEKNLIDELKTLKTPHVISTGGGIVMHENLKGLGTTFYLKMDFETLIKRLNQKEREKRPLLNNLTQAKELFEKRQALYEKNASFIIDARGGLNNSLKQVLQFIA
In kind it is biochemical. As for the experimental part:
(§1) SK activity was determined by coupling the release of ADP from the SK-catalyzed reaction to the oxidation of NADH using pyruvate kinase (EC 2.7.1.40) and lactate dehydrogenase (EC 1.1.1.27) as coupling enzymes. Shikimate-dependent oxidation of NADH was monitored by a decrease in A340 (ε = 6,200 M^−1 cm^−1). […] All assays were conducted in a 96-well microplate and analyzed with a spectrophotometer (FLUOstar OPTIMA, BMG LABTECH). The relative activity of wild-type HpSK was set to 100%.

Assay [4] has as its target T4, HpSK E114A (Helicobacter pylori, UniProt P56073, E114A).
T4 construct: His6 (own knowledge: pQE30 vector gives an N-terminal MRGS-His6 tag); made in house; host or cells: E. coli
In kind it is biochemical. As for the experimental part:
as §1

Assay [5] has as its target T4, HpSK E114A. As to the kind of experiment: Isothermal titration calorimetry, E114A. In kind it is binding. To be noted: ITC, 25°C, ND = not detectable. As for the experimental part: (§2) Titration experiments were performed by ITC using an iTC200 or VP-ITC instrument (MicroCal, Piscataway, NJ, USA), and a 0.2-ml (iTC200) or 1.4-ml (VP-ITC) sample cell containing the macromolecule solution. All proteins were prepared in a buffer containing 20 mM potassium phosphate, pH 7.3. Prior to the experiment, samples were filtered and degassed under vacuum for 10 min in a Thermo Vac system (Microcal). The sample cell was filled with sample protein solution (15 µM) or the working buffer. Procedures of iTC200 titrations with a ligand (450 µM) were as follows: an initial 1-µl injection (not included in data analysis) followed by 19 injections of 2 µl each, with 2-min intervals between injections. Similar procedures for VP-ITC titrations were also performed: an initial 2-µl injection followed by 24 injections of 10 µl each, with 3-min intervals between injections. The experiments were performed with a constant stirrer speed of 1000 rpm (iTC200) or 290 rpm (VP-ITC) at 25°C. The binding isotherms were fitted to a one-site binding model to obtain the thermodynamic parameters with the initial point discarded. Data analysis was conducted using Origin 7 software.

Assay [6] has as its target T5, HpSK R57A (Helicobacter pylori, UniProt P56073, R57A).
T5 construct: His6 (own knowledge: pQE30 vector gives an N-terminal MRGS-His6 tag); made in house; host or cells: E. coli
As to the kind of experiment: Isothermal titration calorimetry, R57A. In kind it is binding. To be noted: ITC, 25°C, ND = not detectable. As for the experimental part:
as §2

Assay [7] addresses T3, HpSK F48Y. Nature of the assay: Isothermal titration calorimetry, F48Y. In kind it is binding. The following applies: ITC, 25°C, ND = not detectable. As for the experimental part:
as §2

The target in assay [8] is T6, HpSK R132A (Helicobacter pylori, UniProt P56073, R132A).
T6 construct: His6 (own knowledge: pQE30 vector gives an N-terminal MRGS-His6 tag); made in house; host or cells: E. coli
T6 sequence (P56073 whole entry R132A): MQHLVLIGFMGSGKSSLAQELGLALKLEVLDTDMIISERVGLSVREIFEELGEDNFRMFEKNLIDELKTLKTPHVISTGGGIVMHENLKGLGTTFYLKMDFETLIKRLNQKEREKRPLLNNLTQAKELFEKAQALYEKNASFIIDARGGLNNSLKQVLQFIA
As to the kind of experiment: Isothermal titration calorimetry, R132A. In kind it is binding. The following applies: ITC, 25°C, ND = not detectable. As for the experimental part:
as §2

Assay [9] deals with T7, HpSK R57K (Helicobacter pylori, UniProt P56073, R57K).
T7 construct: His6 (own knowledge: pQE30 vector gives an N-terminal MRGS-His6 tag); made in house; host or cells: E. coli
T7 sequence (P56073 whole entry R57K): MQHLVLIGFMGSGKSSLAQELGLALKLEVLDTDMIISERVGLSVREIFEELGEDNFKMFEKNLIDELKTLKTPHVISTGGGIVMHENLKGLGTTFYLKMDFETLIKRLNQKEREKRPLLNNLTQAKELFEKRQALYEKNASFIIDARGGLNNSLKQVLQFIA
Nature of the assay: Isothermal titration calorimetry, R57K. In kind it is binding. The following applies: ITC, 25°C, ND = not detectable. As for the experimental part:
as §2

Assay [10] addresses T8, HpSK R116A (Helicobacter pylori, UniProt P56073, R116A).
T8 construct: His6 (own knowledge: pQE30 vector gives an N-terminal MRGS-His6 tag); made in house; host or cells: E. coli
As to the kind of experiment: Isothermal titration calorimetry, R116A. In kind it is binding. The following applies: ITC, 25°C, ND = not detectable. As for the experimental part: as §2

Assay [11] addresses T1, HpSK M10A. As to the kind of experiment: Isothermal titration calorimetry, M10A. In kind it is binding. The following applies: ITC, 25°C, ND = not detectable. As for the experimental part:
as §2

The target of assay [12] is T9, HpSK D33A (Helicobacter pylori, UniProt P56073, D33A).
T9 construct: His6 (own knowledge: pQE30 vector gives an N-terminal MRGS-His6 tag); made in house; host or cells: E. coli
T9 sequence (P56073 whole entry D33A): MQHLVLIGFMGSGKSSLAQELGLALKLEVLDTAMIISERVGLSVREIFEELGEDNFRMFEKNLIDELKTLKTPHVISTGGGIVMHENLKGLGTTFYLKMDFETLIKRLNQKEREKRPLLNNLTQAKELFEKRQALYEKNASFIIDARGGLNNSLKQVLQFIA
Nature of the assay: Isothermal titration calorimetry, D33A. In kind it is binding. To be noted: ITC, 25°C, ND = not detectable. As for the experimental part: as §2

In assay [13] the target is T10, HpSK R116K (Helicobacter pylori, UniProt P56073, R116K).
T10 construct: His6 (own knowledge: pQE30 vector gives an N-terminal MRGS-His6 tag); made in house; host or cells: E. coli
T10 sequence (P56073 whole entry R116K): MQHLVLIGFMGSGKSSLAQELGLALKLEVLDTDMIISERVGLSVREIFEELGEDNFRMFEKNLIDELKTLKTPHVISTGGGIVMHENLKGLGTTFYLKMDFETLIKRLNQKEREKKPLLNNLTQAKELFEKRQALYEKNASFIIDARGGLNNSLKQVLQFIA
As to the kind of experiment: Isothermal titration calorimetry, R116K. To be noted: ITC, 25°C, ND = not detectable. In kind it is binding. As for the experimental part: as §2

Assay [14] deals with T11, HpSK D33E (Helicobacter pylori, UniProt P56073, D33E).
T11 construct: His6 (own knowledge: pQE30 vector gives an N-terminal MRGS-His6 tag); made in house; host or cells: E. coli
T11 sequence (P56073 whole entry D33E): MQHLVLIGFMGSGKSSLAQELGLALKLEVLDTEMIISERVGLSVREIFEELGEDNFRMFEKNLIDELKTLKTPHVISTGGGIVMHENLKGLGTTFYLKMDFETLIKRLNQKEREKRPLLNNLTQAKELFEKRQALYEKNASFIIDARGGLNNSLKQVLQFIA
As to the kind of experiment: Isothermal titration calorimetry, D33E. In kind it is binding. To be noted: ITC, 25°C, ND = not detectable. As for the experimental part:
as §2

Assay [15] addresses T12, wild-type HpSK (Helicobacter pylori, UniProt P56073).
T12 construct: His6 (own knowledge: the pQE30 vector gives an N-terminal MRGS-His6 tag); made in house; host or cells: E. coli (printed for the mutants; same procedures as for wild type)
Nature of the assay: Isothermal titration calorimetry, wild-type HpSK. In kind it is binding. As for the experimental part: as §2

For assay [16], the target named is T13, HpSK R132K (Helicobacter pylori, UniProt P56073, R132K).
T13 construct: His6 (own knowledge: pQE30 vector gives an N-terminal MRGS-His6 tag); made in house; host or cells: E. coli
T13 sequence (P56073 whole entry R132K): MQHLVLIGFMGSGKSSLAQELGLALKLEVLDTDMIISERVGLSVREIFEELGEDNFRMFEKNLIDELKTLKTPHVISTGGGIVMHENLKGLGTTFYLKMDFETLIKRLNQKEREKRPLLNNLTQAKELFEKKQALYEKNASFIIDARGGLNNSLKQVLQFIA
As to the kind of experiment: Isothermal titration calorimetry, R132K. In kind it is binding. The following applies: ITC, 25°C, ND = not detectable. As for the experimental part: as §2

Assay [17] deals with T14, HpSK F48A (Helicobacter pylori, UniProt P56073, F48A).
T14 construct: His6 (own knowledge: pQE30 vector gives an N-terminal MRGS-His6 tag); made in house; host or cells: E. coli
T14 sequence (P56073 whole entry F48A): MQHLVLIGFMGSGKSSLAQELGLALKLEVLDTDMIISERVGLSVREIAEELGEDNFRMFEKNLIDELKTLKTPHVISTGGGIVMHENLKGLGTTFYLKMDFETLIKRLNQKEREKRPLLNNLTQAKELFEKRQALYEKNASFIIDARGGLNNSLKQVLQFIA
Nature of the assay: Isothermal titration calorimetry, F48A. In kind it is binding. To be noted: ITC, 25°C, ND = not detectable. As for the experimental part: as §2

[18] abbreviates: apparent value, read-out: Km (MgATP).
[19] abbreviates: read-out: Km (shikimate), apparent value.

SMILES strings stand for the structures. Like-named read-outs stand apart in the source and are kept apart here.

These results are taken from paper PMC3306394 (PLoS ONE, 2012).

T1 sequence (P56073 whole entry M10A): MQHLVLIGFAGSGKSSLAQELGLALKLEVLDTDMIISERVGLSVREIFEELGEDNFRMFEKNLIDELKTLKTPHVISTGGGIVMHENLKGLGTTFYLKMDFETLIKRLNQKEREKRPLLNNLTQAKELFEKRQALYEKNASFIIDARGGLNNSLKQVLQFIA
T4 sequence (P56073 whole entry E114A): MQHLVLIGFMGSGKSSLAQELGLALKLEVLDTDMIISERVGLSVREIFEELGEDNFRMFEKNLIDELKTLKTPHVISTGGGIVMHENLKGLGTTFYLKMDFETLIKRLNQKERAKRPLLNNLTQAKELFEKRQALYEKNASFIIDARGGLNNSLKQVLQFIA
T12 sequence (P56073 whole entry): as the sequence (P56073 whole entry) above
T8 sequence (P56073 whole entry R116A): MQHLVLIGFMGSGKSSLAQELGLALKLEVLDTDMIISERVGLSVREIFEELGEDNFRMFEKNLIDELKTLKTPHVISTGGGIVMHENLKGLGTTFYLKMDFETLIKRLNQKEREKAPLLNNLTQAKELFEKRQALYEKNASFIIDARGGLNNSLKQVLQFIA
T5 sequence (P56073 whole entry R57A): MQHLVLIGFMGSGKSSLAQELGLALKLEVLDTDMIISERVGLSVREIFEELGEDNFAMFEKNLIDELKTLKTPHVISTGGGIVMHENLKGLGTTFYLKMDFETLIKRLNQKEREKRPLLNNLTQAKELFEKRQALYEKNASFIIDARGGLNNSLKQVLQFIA

`Nc1ncnc2c1ncn2[C@@H]1O[C@H](COP(=O)(O)OP(=O)(O)OP(=O)(O)O)[C@@H](O)[C@H]1O` [ATP]: the “V max(MgATP)” value in assay [1] is 26 ± 1 µmol/min/mg; in [2] it was 26 ± 1 µmol/min/mg; in assay [3] (apparent value) it was 17 ± 1 µmol/min/mg; in assay [4] (apparent value) it was 26 ± 2 µmol/min/mg. Moreover, the Km in [1] (read-out: Km (MgATP)) is 293 µM; in assay [2] (read-out: Km (MgATP)) it was 101 µM; in assay [3] (setting [18]) it was 231 µM; in assay [4] (setting [18]) it was 143 µM.

For `O=C(O)C1=C[C@@H](O)[C@@H](O)[C@H](O)C1` [shikimate, shikimic acid], the dissociation constant Kd in assay [5] was 330 ± 30 nM; in assay [6], “no heat release”; in assay [7], 5200 ± 400 nM; in [8] it was “no heat release”; in assay [9], “no heat release”; in [10], “no heat release”. In addition, the dissociation constant (Kd) was 34000 ± 7000 nM in assay [11]; “no heat release” in [12]; “no heat release” in [13]; “no heat release” in assay [14]; 320 ± 70 nM in assay [15]; “no heat release” in [16]. For the same compound, in [17], the dissociation constant (Kd) entry is reported as “lost binding activity”. For the same compound, the “V max(shikimate)” value in assay [1] is 16 ± 1 µmol/min/mg; in assay [2], 22 ± 1 µmol/min/mg; in assay [3] (apparent value), 13 ± 2 µmol/min/mg; in [4] (apparent value), 23 ± 1 µmol/min/mg. The Michaelis-Menten constant (Km) is 60 µM in assay [2] (read-out: Km (shikimate)), 291 µM in [3] (setting [19]) and 39 µM in assay [4] (setting [19]).
